{"source": "patent US20070184165A1", "about": "“Compositions and methods for improving the efficiency of preservatives in foods” (RAD NATURAL TECHNOLOGIES LTD., priority 2003, published 2007)", "key": {"mold": {"tested_on": "mold", "assay": "Deterioration of whole wheat flour due to mold, measured by carbon dioxide formation", "conditions": "for carbon dioxide formation: 22% moisture, 30° C.", "procedure": "Whole wheat flour which contained 22% moisture was maintained at a temperature of 30° C. The deterioration due to mold formation was measured by determining the amount (%) of carbon dioxide which formed over a ten day period or until the maximum of 15-16% was attained, whichever was the sooner."}, "salmonella": {"tested_on": "salmonella", "assay": "Inhibition of salmonella growth", "format": "cell-based", "conditions": "control growth at 8 hours = 100%", "procedure": "The inhibition of salmonella growth was determined for the title combination and this was compared with control (absence of inhibitors) and using separately, sodium rosmarinate and sodium acetate. The results are as follows, comparing the inhibition of growth effect of inhibitors, control growth being taken arbitrarily at 8 hours, as 100%: […]"}, "[1]": {"assay": "Inhibition of oxidative deterioration in soybean oil at 180° C. (hexanal and trans-decadienal formed)", "conditions": "four hours, 0.02%", "procedure": "(c) Inhibition of oxidative deterioration in soybean oil at 180° C. (four hours) was determined by dissolving Origanox™ OS-A, rosemary oil or TBHQ in the soybean oil and determining the amount of hexanal and trans-decadienal formed in the product, compared with a control in which no antioxidant was used."}, "[2]": {"assay": "Freshness of cured beef by formation of malondialdehyde", "procedure": "(d) Cured beef was treated with “Origanox™ WS-A” (b(ii), above). The thus-treated cured beef product contained approximately 32.5 ppm sodium rosmarinate and 500 ppm ascorbic acid. The higher proportion of ascorbic acid in this case was to inhibit the formation of toxic nitrosamines. The product was tested for freshness as evidenced by the formation of malondialdehyde after 1, 4 and 7 days, and compared with control (no treatment) and with other treatments."}, "[3]": {"assay": "Myoglobin stabilization (colour intensity) in treated fresh beef", "conditions": "after seven days, 250 ppm", "procedure": "(c) Fresh beef was treated, by injection, with “Origanox™ WS-A” (b)(i), above. The thus-treated fresh beef product contained approximately 32.5 ppm sodium rosmarinate and 250 ppm ascorbic acid. The product was tested for myoglobin stabilization by measuring absorption, i.e. intensity of color, at 542 nm, after seven days."}}, "data": [{"compound": "CCC(=O)[O-].CCC(=O)[O-].[Ca+2]", "note": "[Ca propionate, calcium propionate]", "values": [{"measurement": "time until maximum % carbon dioxide (maximum deterioration) was reached", "setting": "mold; 0.2%", "result": "7 to 8", "unit": "days"}, {"measurement": "carbon dioxide formation", "setting": "mold; Day 0, 0.2%", "result": 0.54, "unit": "%"}, {"measurement": "carbon dioxide formation", "setting": "mold; Day 1, 0.2%", "result": 0.81, "unit": "%"}, {"measurement": "carbon dioxide formation", "setting": "mold; Day 2, 0.2%", "result": 1.1, "unit": "%"}, {"measurement": "carbon dioxide formation", "setting": "mold; Day 3, 0.2%", "result": 1.3, "unit": "%"}, {"measurement": "carbon dioxide formation", "setting": "mold; Day 4, 0.2%", "result": 2.0, "unit": "%"}, {"measurement": "carbon dioxide formation", "setting": "mold; Day 5, 0.2%", "result": 3.2, "unit": "%"}, {"measurement": "carbon dioxide formation", "setting": "mold; Day 6, 0.2%", "result": 6.5, "unit": "%"}, {"measurement": "carbon dioxide formation", "setting": "mold; Day 7, 0.2%", "result": 14.6, "unit": "%"}, {"measurement": "carbon dioxide formation", "setting": "mold; Day 8, 0.2%", "result": 15, "unit": "%"}]}, {"compound": "CC(=O)[O-].[Na+]", "note": "[Sodium acetate]", "values": [{"measurement": "% Growth", "setting": "salmonella; 4 hours, 1.0%", "result": 33, "unit": "%"}, {"measurement": "% Growth", "setting": "salmonella; 4 hours, 2.0%", "result": 17, "unit": "%"}, {"measurement": "% Growth", "setting": "salmonella; 8 hours, 1.0%", "result": 75, "unit": "%"}, {"measurement": "% Growth", "setting": "salmonella; 8 hours, 2.0%", "result": 62, "unit": "%"}]}, {"compound": "CC(C)(C)c1cc(O)ccc1O", "note": "[TBHQ]", "values": [{"measurement": "% Inhibition", "setting": "[1]", "result": 32, "unit": "%"}]}, {"compound": "O=C1O[C@H]([C@@H](O)CO)C(O)=C1O", "note": "[ascorbic acid]", "values": [{"measurement": "Formation of malondialdehyde", "setting": "[2]; day 1, 500 ppm", "result": 0.788, "unit": "mg/kg"}, {"measurement": "Formation of malondialdehyde", "setting": "[2]; day 4, 500 ppm", "result": 1.224, "unit": "mg/kg"}, {"measurement": "Formation of malondialdehyde", "setting": "[2]; day 7, 500 ppm", "result": 1.944, "unit": "mg/kg"}, {"measurement": "absorption at 542 nm", "setting": "[3]", "result": 0.513}]}, {"compound": "O=C(/C=C/c1ccc(O)c(O)c1)O[C@H](Cc1ccc(O)c(O)c1)C(=O)O", "note": "[sodium rosmarinate]", "values": [{"measurement": "Formation of malondialdehyde", "setting": "[2]; day 1, 32.5 ppm", "result": 0.798, "unit": "mg/kg"}, {"measurement": "Formation of malondialdehyde", "setting": "[2]; day 4, 32.5 ppm", "result": 1.097, "unit": "mg/kg"}, {"measurement": "Formation of malondialdehyde", "setting": "[2]; day 7, 32.5 ppm", "result": 1.327, "unit": "mg/kg"}]}]}
